Source: patent US8609635B2, “Fused tricyclic silyl compounds and methods of use thereof for the treatment of viral diseases” (priority 2010, dated 2013)

Columns and labels:
[1] = Pharmacokinetic analysis in rats; type: in vivo, Male Sprague-Dawley rats; conditions: Rat, dihydrochloride salt, 5 mpk/PO, 2.5 mpk/IV
Protocol: (§1) Various pharmacokinetic parameters for compound 56 were measured in rats, dogs and monkeys as described below.
Male Sprague-Dawley rats (Charles River, Co.) were pre-cannulated (femoral artery) in order to facilitate precise blood sampling times, to increase throughput and to reduce the stress on the animals caused by serial bleedings. Following an overnight fast, rats were dosed with the dihydrochloride salt of compound 56 orally at 5 mg/kg as a suspension in 0.4% hydroxylpropyl methylcellulose (HPMC) or intravenously at 2.5 mg/kg as a solution in 20% hydroxypropyl-β-cyclodextrin (20% HPβCD). Blood was collected into heparin-containing tubes serially from each animal at 0.25, 0.5, 1, 2, 4, 6, 8, 24 and 48 hr (PO), and 0.167, 0.25, 0.5, 1, 2, 4, 6, 8, 24 and 48 hr (IV) post-dosing and centrifuged to generate plasma. The plasma samples were stored at […] until analysis.
(§2) Collected plasma samples were analyzed for the presence of compound 56 using LC-MS/MS as described below.
(§3) The HPLC/API-MS/MS system for the example data consisted of a HPLC pumping system and a auto sampler with the sample tray refrigeration option connected directly to a triple quadrupole mass spectrometer with an API source. Typical HPLC methods for the example data was based on a fast gradient of two solvents: solvent A consisted of 0.1% formic acid in water, and solvent B consisted of 0.1% formic acid in acetonitrile. A fast linear gradient (start at 90% A for 0.2 min, ramp to 95% B from 0.2 to 0.5 min, hold at 95% B […], then ramp back to 90% A from 1.0 to 1.1 min, then hold at, […] from 1.1 to 1.2 min) was used. The flow rate for the HPLC system was set to 1 mL/min throughout the HPLC gradient; the HPLC column was a Halo C18 column (2.7 micron particle size, 50×2.1 mm). The example compounds were analyzed by positive ion atmospheric pressure chemical ionization tandem mass spectrometry (APCI-MS/MS). As a general procedure, selected reaction monitoring (SRM) methods were developed for each compound prior to analysis of the plasma samples. Normally, the individual SRM transitions were based on a fragmentation from the protonated molecule ([MH].) to a characteristic product ion.
(§4) Using the methods described above, the following pharmacokinetic parameters were calculated in rats, dogs and monkeys and the results are summarized in the table below.

[2] = system: HCV chimeric replicon with NS5A of genotype 2b (AB03090); assay: Cell-based HCV replicon assay (TaqMan), chimeric replicon genotype 2b (AB03090); conditions: Hepatitis C virus, 72 h, read-out: HCV replicon EC50 2b (AB03090), chimeric replicon 2b (AB03090); replicon RNA by TaqMan, day 3
Protocol: Measurement of inhibition by compounds of the present invention was performed using the HCV replicon system. Several different replicons encoding different HCV genotypes or mutations were used. In addition, potency measurements were made using different formats of the replicon assay, including different ways of measurements and different plating formats. See Jan M. Vrolijk et al., A replicons-based bioassay for the measurement of interferons in patients with chronic hepatitis C, 110 J. VIROLOGICAL METHODS 201 (2003); Steven S. Carroll et al., Inhibition of Hepatitis C Virus RNA Replication by 2′-Modified Nucleoside Analogs, 278(14) J. BIOLOGICAL […] 11979 (2003). However, the underlying principles are common to all of these determinations, and are outlined below.
Compounds of the present invention were assayed for cell-based anti-HCV activity using the following protocol. Replicon cells were seeded at 5000 cells/well in 96-well collagen I-coated Nunc plates in the presence of the test compound. Various concentrations of test compound, typically in 10 serial 2-fold dilutions, were added to the assay mixture, with the starting concentration ranging from 250 μM to 1 μM. The final concentration of DMSO was 0.5%, fetal bovine serum was 5%, in the assay media. Cells were harvested on day 3 by the addition of 1× cell lysis buffer (Ambion cat #8721). The replicon RNA level was measured using real time PCR (TaqMan® assay). The amplicon was located in 5B. The PCR primers were: 5B.2F, […] (SEQ. ID NO. 1); 5B.2R, […] (SEQ. ID NO. 2); the probe sequence was FAM-labeled […] (SEQ. ID NO. 3). GAPDH RNA was used as endogenous control and was amplified in the same reaction as NS5B (multiplex PCR) using primers and VIC-labeled probe recommended by the manufacturer (PE Applied Biosystem). The real-time RT-PCR reactions were run on ABI PRISM 7900HT Sequence Detection System using the following program: 48° C. for 30 minutes, 95° C. for 10 minutes, 40 cycles of 95° C. for 15 sec, 60° C. for 1 minute. The ΔCT values (CT5B-CTGAPDH) were plotted against the concentration of test compound and fitted to the sigmoid dose-response model using XLfit4 (MDL). […] Alternatively, to quantitate the absolute amount of replicon RNA, a standard curve was established by including serially diluted T7 transcripts of replicon RNA in the Taqman assay. All TaqMan® reagents were from PE Applied Biosystems. Such an assay procedure was described in detail in e.g. Malcolm et al., Antimicrobial Agents and Chemotherapy 50: 1013-1020 (2006).
Wherein gt1a_H77 was prepared as described in Yi et al., J Virol. 2004, 78(15):7904-15; gt1b_con1 was prepared as described in Lohmann et al., Science 1999, 285(5424):110-3; and gt2a_JFH was prepared as described in Kato et al., Gastroenterology. 2003, 125(6):1808-17. Chimeric replicons contain NS5A from patient isolates of genotypes 1a, 1b, 2b, 3a and 4a as indicated.

[3] = Pharmacokinetic analysis in monkeys; type: in vivo, male cynomolgus monkeys; conditions: Monkey, dihydrochloride salt, 2 mpk/PO, 1 mpk/IV
Protocol: as §1
Following an overnight fast, male cynomolgus monkeys were dosed with the dihydrochloride salt of compound 56 orally at 2 mg/kg as a suspension in 0.4% hydroxylpropyl methylcellulose (HPMC) or intravenously at 1 mg/kg as a solution in 20% hydroxypropyl-β-cyclodextrin (20% HPβCD). For oral dosing, the animals dosed by oro-gastric intubation. Monkeys were fed approximately 1 hour before dosing and 4 hours after dosing. Blood samples were collected from the saphenous and/or cephalic vein at 0.25, 0.5, 1, 2, 4, 6, 8, 12, 24, 48, and 72 (PO), and 0.167, 0.25, 0.5, 1, 2, 4, 6, 8, 12, 24, 48, and 72 hrs (IV) post-dosing and centrifuged to generate plasma. The plasma samples were stored at […] until analysis.
as §2, §3, §4

[4] = system: HCV chimeric replicon with NS5A of genotype 3a (NC00982); assay: Cell-based HCV replicon assay (TaqMan), chimeric replicon genotype 3a (NC00982); conditions: Hepatitis C virus, 72 h, read-out: HCV replicon EC50 3a (NC00982), chimeric replicon 3a (NC00982); replicon RNA by TaqMan, day 3
Method in brief: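 Replicon cells seeded at 5000 cells/well with compound (10 serial 2-fold dilutions from 250 μM to 1 μM top dose; 0.5% DMSO, 5% FBS) and lysed on day 3. Replicon RNA quantified by multiplex TaqMan RT-PCR (NS5B amplicon, GAPDH control); ΔCT versus concentration fitted to sigmoid dose-response. Chimeras carry patient-isolate NS5A.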

[5] = dose-normalized AUC between PO and IV

For COC(=O)N[C@H](C(=O)N1CC(F)(F)C[C@H]1c1ncc(-c2ccc(-c3ccc4c(ccc5nc([C@@H]6C[Si](C)(C)CN6C(=O)[C@@H](NC(=O)OC)C(C)C)[nH]c54)c3)cc2)[nH]1)C(C)C [Compound 56], the “Effective Half-Life” value [1] was 7.6 h, the “Systemic Clearance” value [1] was 5.6 mL/min/kg and the “Volume of Distribution” value [1] was 3.7 L/kg. For the same compound, the “Oral Bioavailability” value [1, 5] was 28%, the EC50 [2] was 48 nM and the “Effective Half-Life” value [3] was 17 h. For the same compound, the “Systemic Clearance” value [3] was 1.2 mL/min/kg, the “Volume of Distribution” value [3] was 1.7 L/kg and the “Oral Bioavailability” value [3, 5] was 11.7%. The EC50 [4] was 0.35 nM.
